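Compound exposure: 48 hours, 5 concentrations, 96-well plates. Definition used: TGI = concentration required for complete inhibition of growth.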
Key:
Test in all cases: NCI-60 cell line screen, 48 h
786-0 renal = tested on: 786-0 renal
U251 CNS = tested on: U251 CNS
OVCAR-4 ovarian = tested on: OVCAR-4 ovarian
SR leukemia = tested on: SR leukemia
HCT-15 colon = tested on: HCT-15 colon
TK-10 renal = tested on: TK-10 renal
KM12 colon = tested on: KM12 colon
HCT-116 colon = tested on: HCT-116 colon
SNB-75 CNS = tested on: SNB-75 CNS
A549 NSCLC = tested on: A549 NSCLC
OVCAR-5 ovarian = tested on: OVCAR-5 ovarian
SF-268 CNS = tested on: SF-268 CNS
RXF 393 renal = tested on: RXF 393 renal
A498 renal = tested on: A498 renal
NCI/ADR-RES ovarian = tested on: NCI/ADR-RES ovarian
RPMI-8226 leukemia = tested on: RPMI-8226 leukemia
SW-620 colon = tested on: SW-620 colon
OVCAR-3 ovarian = tested on: OVCAR-3 ovarian
HL-60(TB) leukemia = tested on: HL-60(TB) leukemia
M14 melanoma = tested on: M14 melanoma
PC-3 prostate = tested on: PC-3 prostate
IGROV1 ovarian = tested on: IGROV1 ovarian
BT-549 breast = tested on: BT-549 breast
UACC-62 melanoma = tested on: UACC-62 melanoma
HS 578T breast = tested on: HS 578T breast
MCF7 breast = tested on: MCF7 breast
EKVX NSCLC = tested on: EKVX NSCLC
SK-OV-3 ovarian = tested on: SK-OV-3 ovarian
SNB-19 CNS = tested on: SNB-19 CNS
COLO 205 colon = tested on: COLO 205 colon
MALME-3M melanoma = tested on: MALME-3M melanoma
SK-MEL-5 melanoma = tested on: SK-MEL-5 melanoma
HOP-62 NSCLC = tested on: HOP-62 NSCLC
MDA-N = tested on: MDA-N
SN12C renal = tested on: SN12C renal
NCI-H522 lung = tested on: NCI-H522 lung
MOLT-4 leukemia = tested on: MOLT-4 leukemia
NCI-H23 lung = tested on: NCI-H23 lung
UACC-257 melanoma = tested on: UACC-257 melanoma
SK-MEL-28 melanoma = tested on: SK-MEL-28 melanoma
MDA-MB-231 breast = tested on: MDA-MB-231 breast
DU-145 prostate = tested on: DU-145 prostate
K-562 leukemia = tested on: K-562 leukemia
NCI-H460 lung = tested on: NCI-H460 lung
SF-539 CNS = tested on: SF-539 CNS
MDA-MB-435 = tested on: MDA-MB-435
HOP-92 NSCLC = tested on: HOP-92 NSCLC
SK-MEL-2 melanoma = tested on: SK-MEL-2 melanoma
LOX IMVI melanoma = tested on: LOX IMVI melanoma
HCC-2998 colon = tested on: HCC-2998 colon
OVCAR-8 ovarian = tested on: OVCAR-8 ovarian
ACHN renal = tested on: ACHN renal
HT29 colon = tested on: HT29 colon
CAKI-1 renal = tested on: CAKI-1 renal
CCRF-CEM leukemia = tested on: CCRF-CEM leukemia
NCI-H226 lung = tested on: NCI-H226 lung
SF-295 CNS = tested on: SF-295 CNS
UO-31 renal = tested on: UO-31 renal

## CC[C@@H]1/C=C/C=C/C[C@H](C)[C@@H](O)[C@@H](C)C(=O)[C@H](C)[C@@H](O)[C@H](C)C(=O)[C@H](C)[C@@H](O)[C@H](C)/C=C/C(=O)O[C@H]2[C@@H](C)[C@@H](CC1)O[C@@]1(CC[C@@H](C)[C@@H](CC(C)O)O1)[C@@H]2C (stereo not given in full)
786-0 renal
  TGI: > 25 µM
U251 CNS
  TGI: > 25 µM
OVCAR-4 ovarian
  TGI: > 19.3 µM
SR leukemia
  TGI: 10.2 µM
HCT-15 colon
  TGI: > 25 µM
TK-10 renal
  TGI: > 23.6 µM
KM12 colon
  TGI: > 21.5 µM
HCT-116 colon
  TGI: > 25 µM
SNB-75 CNS
  TGI: > 7.9 µM
A549 NSCLC
  TGI: > 16.9 µM
OVCAR-5 ovarian
  TGI: 15.4 µM
SF-268 CNS
  TGI: > 25 µM
RXF 393 renal
  TGI: 9.44 µM
A498 renal
  TGI: 11 µM
NCI/ADR-RES ovarian
  TGI: > 19.1 µM
RPMI-8226 leukemia
  TGI: 14.7 µM
SW-620 colon
  TGI: > 25 µM
OVCAR-3 ovarian
  TGI: 17.7 µM
HL-60(TB) leukemia
  TGI: 7.27 µM
M14 melanoma
  TGI: > 14.7 µM
PC-3 prostate
  TGI: 12.3 µM
IGROV1 ovarian
  TGI: 24.9 µM
BT-549 breast
  TGI: 24.4 µM
UACC-62 melanoma
  TGI: 14.5 µM
HS 578T breast
  TGI: > 23.5 µM
MCF7 breast
  TGI: 7.49 µM
EKVX NSCLC
  TGI: 7.44 µM
SK-OV-3 ovarian
  TGI: > 21.3 µM
SNB-19 CNS
  TGI: > 25 µM
COLO 205 colon
  TGI: 4.62 µM
MALME-3M melanoma
  TGI: > 24 µM
SK-MEL-5 melanoma
  TGI: 3.38 µM
HOP-62 NSCLC
  TGI: > 25 µM
MDA-N
  TGI: > 17.6 µM
SN12C renal
  TGI: 9.9 µM
NCI-H522 lung
  TGI: 11.4 µM
MOLT-4 leukemia
  TGI: 7.65 µM
NCI-H23 lung
  TGI: > 25 µM
UACC-257 melanoma
  TGI: 1.82 µM
SK-MEL-28 melanoma
  TGI: > 25 µM
MDA-MB-231 breast
  TGI: > 17.4 µM
DU-145 prostate
  TGI: > 11.8 µM
K-562 leukemia
  TGI: > 25 µM
NCI-H460 lung
  TGI: > 22.2 µM
SF-539 CNS
  TGI: 24.6 µM
MDA-MB-435
  TGI: > 18.3 µM
HOP-92 NSCLC
  TGI: > 20 µM
SK-MEL-2 melanoma
  TGI: 18.1 µM
LOX IMVI melanoma
  TGI: > 25 µM
HCC-2998 colon
  TGI: 8.52 µM
OVCAR-8 ovarian
  TGI: > 25 µM
ACHN renal
  TGI: 16.7 µM
HT29 colon
  TGI: 13.9 µM
CAKI-1 renal
  TGI: > 25 µM
CCRF-CEM leukemia
  TGI: > 14.4 µM

## O=C(CNc1ccccc1[N+](=O)[O-])Nn1cnc2ccc(S(=O)(=O)Nc3ccccc3[N+](=O)[O-])cc2c1=O
786-0 renal
  TGI: > 100 µM
U251 CNS
  TGI: > 100 µM
OVCAR-4 ovarian
  TGI: > 100 µM
SR leukemia
  TGI: > 100 µM
HCT-15 colon
  TGI: > 100 µM
TK-10 renal
  TGI: > 100 µM
KM12 colon
  TGI: > 100 µM
HCT-116 colon
  TGI: > 100 µM
SNB-75 CNS
  TGI: > 100 µM
A549 NSCLC
  TGI: > 100 µM
OVCAR-5 ovarian
  TGI: > 100 µM
NCI-H226 lung
  TGI: > 100 µM
SF-268 CNS
  TGI: > 100 µM
NCI/ADR-RES ovarian
  TGI: > 100 µM
RPMI-8226 leukemia
  TGI: > 100 µM
SW-620 colon
  TGI: > 100 µM
OVCAR-3 ovarian
  TGI: > 100 µM
HL-60(TB) leukemia
  TGI: > 100 µM
M14 melanoma
  TGI: > 100 µM
PC-3 prostate
  TGI: > 100 µM
IGROV1 ovarian
  TGI: > 100 µM
BT-549 breast
  TGI: > 100 µM
UACC-62 melanoma
  TGI: > 100 µM
HS 578T breast
  TGI: > 100 µM
MCF7 breast
  TGI: > 100 µM
EKVX NSCLC
  TGI: > 100 µM
SK-OV-3 ovarian
  TGI: > 100 µM
SNB-19 CNS
  TGI: > 100 µM
COLO 205 colon
  TGI: > 100 µM
MALME-3M melanoma
  TGI: > 100 µM
HOP-62 NSCLC
  TGI: > 100 µM
MDA-N
  TGI: > 100 µM
SN12C renal
  TGI: > 100 µM
NCI-H522 lung
  TGI: > 100 µM
MOLT-4 leukemia
  TGI: > 100 µM
NCI-H23 lung
  TGI: > 100 µM
UACC-257 melanoma
  TGI: > 100 µM
SK-MEL-28 melanoma
  TGI: > 100 µM
MDA-MB-231 breast
  TGI: > 100 µM
SF-295 CNS
  TGI: > 100 µM
DU-145 prostate
  TGI: > 100 µM
K-562 leukemia
  TGI: > 100 µM
UO-31 renal
  TGI: > 100 µM
NCI-H460 lung
  TGI: > 100 µM
SF-539 CNS
  TGI: > 100 µM
MDA-MB-435
  TGI: > 100 µM
HOP-92 NSCLC
  TGI: > 100 µM
SK-MEL-2 melanoma
  TGI: > 100 µM
LOX IMVI melanoma
  TGI: > 100 µM
HCC-2998 colon
  TGI: > 100 µM
OVCAR-8 ovarian
  TGI: > 100 µM
ACHN renal
  TGI: > 100 µM
HT29 colon
  TGI: > 100 µM
CAKI-1 renal
  TGI: > 100 µM
CCRF-CEM leukemia
  TGI: > 100 µM

Reference: PubChem BioAssay (NCI)
